The values below come from US5981525A, “Indole derivatives useful in the treatment of osteoporosis” (SmithKline Beecham Corporation, priority 1995, dated 1999).

The structures appear in SMILES notation. Structures can show the parent of a compound that is named as a salt.

One experiment has as its system osteoclast proton pump.
Test: not given
The settings on record: ruffled membrane vesicles from avian osteoclasts; cited from earlier work.
As for `CO/C1=C\C(C)=C\[C@@H](C)[C@@H](O)[C@@H](C)C/C(C)=C/C=C/[C@H](OC)[C@@H]([C@@H](C)[C@@H](O)[C@H](C)[C@@]2(O)C[C@@H](O)[C@H](C)[C@@H](C(C)C)O2)OC1=O` [bafilomycin A1], the “inhibition of proton transport” value was “inhibited”.
`C[C@@H]1O[C@@H](O[C@H]2C[C@@H](O)[C@]3(CO)[C@H]4[C@H](O)C[C@]5(C)[C@@H](C6=CC(=O)OC6)CC[C@]5(O)[C@@H]4CC[C@]3(O)C2)[C@H](O)[C@H](O)[C@H]1O` [ouabain]: the “inhibition of proton transport” value is “not inhibited”.
For `[Na+].[Na+].[Na+].[O]=[V]([O-])([O-])[O-]` [sodium orthovanadate], the “inhibition of proton transport” value is recorded as “not inhibited”.
Turning to `CCN1C(=O)C=CC1=O` [N-ethylmaleimide], the “inhibition of proton transport” value was “inhibited”.
With `Cc1nc2c(OCc3ccccc3)cccn2c1CC#N` [SCH 28080], the “inhibition of proton transport” value is “not inhibited”.
Consider `COc1ccc2[nH]c([S+]([O-])Cc3ncc(C)c(OC)c3C)nc2c1` (stereo not shown) [omeprazole], for which the “inhibition of proton transport” value was “not inhibited”.

A further experiment concerns the target bafilomycin-sensitive ATPase. Description: Inhibition of bafilomycin-sensitive ATPase in chicken osteoclasts (ATPase assay, Pi release). Format: biochemical. To be noted: chicken osteoclast membranes. Here is the method: Vesicles were prepared from medullar bone obtained from tibiae and femurs of egg-laying hens which were calcium-starved for at least 15 days. Briefly, bone fragments were scraped with a 24 scalpel blade, suspended in 40 ml of isolation medium (0.2 M sucrose, 50 mM KCl, 10 mM Hepes, 1 mM EGTA, 2 mM dithiotheitrol, pH 7.4) and filtered through a 100 μm pore size nylon mesh. The whole procedure was performed at 4° C. After homogenisation in a potter (20 strokes) in 40 ml of isolation medium an initial centrifugation (6,500×gmax 20 min) was performed to remove mitochondria and lysosomes. The supematant was centrifuged at 100,000×gmax for 1 hr and the pellet was collected in 1 ml of isolation medium, divided into 200 μl aliquots, immediately frozen in liquid nitrogen and stored at -80° C. The protein content was determined using a Biorad colourimetric kit according to Bradford [M. Bradford, Anal. Biochem., 72, 248 (1976)]. For the proton transport assay, 5-10 μl of membranes were used.
Purification of osteoclast membranes. 1 ml of crude microsomal vesicles prepared above were applied (about 0.2 ml per tube ) on the top of a sucrose step-gradient consisting of 3.5 ml of 15%, 30% and 45% (w/w) sucrose in isolation medium and centrifuged at 280,000 gmax for 2 hours (SW 41 Ti rotor). After centrifugation the 30-45% sucrose interfaces were collected, diluted approx. 20-fold in isolation medium and pelletted at 100,000 gmax for 1 hour (SW 28 rotor). The pellet was then resuspended in 1 ml of isolation medium, aliquoted and frozen in liquid N2 and stored at -80° C. until used.
Inhibition of bafilomycin-sensitive ATPase activity was assessed in purified membrane vesicles by measuring the release of inorganic phosphate (Pi) during 30 min of incubation at 37° C. in a 96-well plate either in the presence or in the absence of bafilomycin Al. The reaction medium contained 1 mM ATP, 10 mM HEPES-Tris pH 8,50 mM KCl, 5 uM valinomycin, 5 uM nigericin, 1 mM CDTA-Tris, 100 uM ammonium molybdate, 0.2 M sucrose and membranes (20 ug protein/ml). The reaction was initiated by MgSO4 (8-arm pipette) and stopped, after 30 min, by addition of 4 volumes of the malachite green reagent (96-arm pipette) prepared according to Chan [Anal. Biochem. 157, 375 (1986)]. Absorbance at 650 nm was measured after 2 min using a microplate reader. Results are expressed as μmol (Pi)×mg protein^-1 ×hour^-1 and, for each experiment, represent the mean±sem of triplicates.
As for `COC(=O)/C(=C/C=C/c1cc2cc(Cl)c(Cl)cc2[nH]1)OC` [Example 6, Methyl (2Z,4E)-5-(5,6-dichloro-2-indolyl)-2-methoxy-2,4-pentadienoate], the half-maximal inhibitory concentration (IC50) (usually the concentration that gives 50% inhibition) stood at 1.1 µM.
On the same count and under the same terms, to `CO/C(=C\C=C\c1cc2cc(Cl)c(Cl)cc2[nH]1)C(=O)NCCCN1CCN(C)CC1` [Example 67, (2Z,4E)-5-(5,6-Dichloro-2-indolyl)-2-methoxy-N-[3-[1-(4-methyl)piperazinyl]-propyl]-2,4-pentadienamide] belongs 1.3 µM; to `CO/C(=C\C=C\c1cc2cc(Cl)c(Cl)cc2[nH]1)C(=O)Nc1ccc(OC)nc1` [Example 57, (2Z,E)-5-(5,6-Dichloro-2-indolyl)-2-methoxy-N-[5-(2-methoxy)pyridyl]-2,4-pentadienamide], 1.6 µM; to `CCN(CC)CCCNC(=O)/C(=C/C=C/c1cc2cc(Cl)c(Cl)cc2[nH]1)OC` [Example 34, (2Z,4E)-5-(5,6-Dichloro-2-indolyl)-N-[3-(diethylamino)-propyl]-2-methoxy-2,4-pentadienamide], 0.17 µM.
The same measure, in the same setting: to `CO/C(=C\C=C\c1cc2cc(Cl)c(Cl)cc2[nH]1)C(=O)NCCC1CCCN1C` (stereo not shown) [Example 54, (2Z,4E)-5-(5,6-Dichloro-2-indolyl)-2-methoxy-N-[2-[2-(1-methyl)pyrrolidinyl]ethyl]-2,4-pentadienamide] belongs 0.34 µM; to `CO/C(=C\C=C\c1cc2cc(Cl)c(Cl)cc2[nH]1)C(=O)NC1CC2CCC(C1)N2C` (stereo not drawn) [Example 66, (2Z,4E)-6-(5,6-dichloro-2-indolyl)-N-[8-methyl-8-azabicyclo[3.2.1]oct-3β-yl]-2-methoxy-2,4-pentadienamide], 0.1 µM.
`CO/C(=C\C=C\c1cc2cc(Cl)c(Cl)cc2[nH]1)C(=O)N[C@@H]1CN2CCC1CC2` [Example 50, (2Z,4E)-N-[(S)-1-Azabicyclo[2.2.2]octan-3-yl]-5-(5,6-dichloro-2-indolyl)-2-methoxy-2,4-pentadienamide] showed a concentration for half-maximal inhibition (IC50) of 0.62 µM. This IC50 is about 6.2-fold higher than that of the compound before.
The same measure, in the same setting: to `CO/C(=C\C=C\c1cc2cc(Cl)c(Cl)cc2[nH]1)C(=O)Nc1ncccn1` [Example 65, (2Z,4E)-5-(5,6-Dichloro-2-indolyl)-2-methoxy-N-(2-pyrimidinyl)-2,4-pentadienamide] belongs 17 µM.
The same measure, in the same setting: to `CO/C(=C\C=C\c1cc2cc(Cl)c(Cl)cc2[nH]1)C(=O)NC1CC(C)(C)NC(C)(C)C1` [Example 56, (2Z,4E)-5-(5,6-Dichloro-2-indolyl)-2-methoxy-N-[4-(2,2,6,6-tetramethyl)piperidinyl]-2,4-pentadienamide] belongs 0.07 µM; to `CO/C(=C\C=C\c1cc2cc(Cl)ccc2[nH]1)C(=O)Nc1cccnc1` [Example 33], 4 µM; to `CO/C(=C\C=C\c1cc2cc(Cl)c(Cl)cc2[nH]1)C(=O)NCCCn1ccnc1` [Example 49, (2Z,4E)-5-(5,6-Dichloro-2-indolyl)-N-[3-(1H-imidazol-1-yl)-propyl]-2-methoxy-2,4-pentadienamide], 4 µM.
On the same count and under the same terms, to `CO/C(=C\C=C\c1cc2cc(Cl)c(Cl)cc2[nH]1)C(=O)NCCN1CCCCC1` [Example 53, (2Z,4E)-5-(5,6-Dichloro-2-indolyl)-N-[2-(1-piperidinyl)-ethyl]-2-methoxy-2,4-pentadienamide] belongs 1.2 µM; to `CO/C(=C\C=C\c1cc2cc(Cl)c(Cl)cc2[nH]1)C(=O)NCCCN1CCCCC1C` (stereo not shown) [Example 59, (2Z,4E)-5-(5,6-Dichloro-2-indolyl)-2-methoxy-N[3-[1-(2-methyl)piperidin-yl]-propyl]-2,4-pentadienamide], 0.13 µM; to `CO/C(=C\C=C\c1cc2cc(Cl)c(Cl)cc2[nH]1)C(=O)NCCCN(CC(=O)O)CC(=O)O` [Example 45, hydrochloride], 14 µM.
In turn, `CCN(CC)CCCNC(=O)/C(=C/C=C/c1cc2cc(Cl)ccc2[nH]1)OC` [Example 26, (2Z,4E)-5-(5-Chloro-2-indolyl)-N-[3-(diethylamino)-propyl]-2-methoxy-2,4-pentadienamide] gave an IC50 of 3 µM.
In the case of `CCOC(=O)/C(=C/C=C/c1cc2cc(Cl)ccc2[nH]1)OCC` [Example 30, Ethyl(2Z,4E)-5-(5-chloro-2-indolyl)-2-ethoxy-2,4-pentadienoate], half-maximal inhibition (IC50) required 30 µM.
Same read-out and setting: to `CO/C(=C\C=C\c1cc2cc(Cl)c(Cl)cc2[nH]1)C(=O)NCCCN1CCOCC1` [Example 51, (2Z,4E)-5-(5,6-Dichloro-2-indolyl)-N-[3-(morpholino)propyl]-2-methoxy-2,4-pentadienamide] belongs 1.1 µM.
`CCN(CC)CCNC(=O)/C(=C/C=C/c1cc2cc(Cl)c(Cl)cc2[nH]1)OC` [Example 46, (2Z,4E)-5-(5,6-Dichloro-2-indolyl)-N-[2-(diethylamino)-ethyl]-2-methoxy-2,4-pentadienamide]: 0.59 µM corresponded to half-maximal inhibition (IC50). Against the preceding compound, the IC50 is about 1.9-fold lower.
Still for that read-out and setting: to `CO/C(=C\C=C\c1cc2cc(Cl)c(Cl)cc2[nH]1)C(=O)NN1CCN(C)CC1` [Example 60, (2Z,4E)-5-(5,6-Dichloro-2-indolyl)-2-methoxy-N-[1-(4-methylpiperazinyl)]-2,4-pentadienamide] belongs 0.85 µM; to `CO/C(=C\C=C\c1cc2cc(Cl)c(Cl)cc2[nH]1)C(=O)Nc1cccnc1` [Example 44, (2Z,4E)-5-(5,6-Dichloro-2-indolyl)-2-methoxy-N-(3-pyridyl)-2,4-pentadienamide], 0.62 µM; to `CO/C(=C\C=C\c1cc2cc(Cl)ccc2[nH]1)C(=O)N(Cc1ccccc1)CC(O)CO` (stereo not shown) [Example 20, (2Z,4E)-5-(5-Chloro-2-indolyl)-N-2,3-dihydroxypropyl-2-methoxy-N-phenylmethyl-2,4-pentadienamide], 15 µM.
In turn, `CO/C(=C\C=C\c1cc2cc(Cl)ccc2[nH]1)C(=O)NCc1cccnc1` [Example 15, (2Z,4E)-5-(5-Chloro-2-indolyl)-2-methoxy-N-(3-pyridylmethyl)-2,4-pentadienamide] returned a half-inhibitory concentration (IC50) of 22 µM. The IC50 values of the last two compounds are within 1.5-fold of each other.
On the same count and under the same terms, to `COC(=O)/C(=C/C=C/c1cc2cc(Cl)ccc2[nH]1)OC` [Example 4, Methyl (2Z,4E)-5-(5-chloro-2-indolyl)-2-methoxy-2,4-pentadienoate] belongs 7 µM; to `CO/C(=C\C=C\c1cc2cc(Cl)ccc2[nH]1)C(=O)NCc1ccc(N)cc1` [Example 37], 30 µM; to `CO/C(=C\C=C\c1cc2cc(Cl)c(Cl)cc2[nH]1)C(=O)Nc1ncnc2[nH]ncc12` [Example 71, (2Z,4E)-5-(5,6-Dichloro-2-indolyl)-2-methoxy-N-(1H-pyrazolo[3,4-d]pyrimidin-4-yl)-2,4-pentadienamide], 0.53 µM.
On the same count and under the same terms, to `CO/C(=C\C=C\c1cc2cc(Cl)c(Cl)cc2[nH]1)C(=O)NC1CCN(C)CC1` [Example 70, (2Z,4E)-5-(5,6-Dichloro-2-indolyl)-2-methoxy-N-[4-(1-methyl)-piperidinyl]-2,4-pentadienamide] belongs 0.12 µM; to `CCN(CCCNC(=O)/C(=C/C=C/c1cc2cc(Cl)c(Cl)cc2[nH]1)OC)Cc1ccccc1` [Example 62], 1.4 µM.

The next experiment has as its system osteoclast cultures.
Test: not given
The settings on record: cited from earlier work.
In the case of `CO/C1=C\C(C)=C\[C@@H](C)[C@@H](O)[C@@H](C)C/C(C)=C/C=C/[C@H](OC)[C@@H]([C@@H](C)[C@@H](O)[C@H](C)[C@@]2(O)C[C@@H](O)[C@H](C)[C@@H](C(C)C)O2)OC1=O` [bafilomycin A1], the “inhibition of bone resorption” value is “inhibit bone resorption”.
